Measurements taken from US20120245137A1 (Zalicus Pharmaceuticals Ltd., priority 2009, published 2012).
pIC50: −log10 of the molar value.

Tests used:
Type in all cases: cell-based
[1] = molecular target: human α1G T-type channels (Homo sapiens, UniProt O43497); assay: T-type calcium channel block, whole cell patch clamp, α1G; conditions: HEK cells stably expressing human α1G; mainly non-inactivated protocol; values above 10,000 nM represented as 10000
Outline: (§1)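 Cells are stable HEK 293 lines carrying human α1G or α1H channels, patched in whole-cell mode. Resting block comes from the non-inactivated pre-pulse; voltage-dependent block from the inactivated protocol.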

[2] = molecular target: human α1H T-type channels (Homo sapiens, UniProt O95180); assay: T-type calcium channel block, whole cell patch clamp, α1H; conditions: HEK cells stably expressing human α1H; mainly non-inactivated protocol; values above 10,000 nM represented as 10000
Outline: as §1

[3] = molecular target: N-type calcium channel subunits (α1B, α2δ, and β3a) (Homo sapiens, UniProt Q00975); assay: Block of Cav2.2 channel, whole cell voltage clamp, manual and PatchXpress; conditions: Table 5; table follows Assay Example 3 (whole cell voltage clamp / PatchXpress); assay not given
Chain of N-type calcium channel subunits (α1B, α2δ, and β3a) (Q00975 whole entry): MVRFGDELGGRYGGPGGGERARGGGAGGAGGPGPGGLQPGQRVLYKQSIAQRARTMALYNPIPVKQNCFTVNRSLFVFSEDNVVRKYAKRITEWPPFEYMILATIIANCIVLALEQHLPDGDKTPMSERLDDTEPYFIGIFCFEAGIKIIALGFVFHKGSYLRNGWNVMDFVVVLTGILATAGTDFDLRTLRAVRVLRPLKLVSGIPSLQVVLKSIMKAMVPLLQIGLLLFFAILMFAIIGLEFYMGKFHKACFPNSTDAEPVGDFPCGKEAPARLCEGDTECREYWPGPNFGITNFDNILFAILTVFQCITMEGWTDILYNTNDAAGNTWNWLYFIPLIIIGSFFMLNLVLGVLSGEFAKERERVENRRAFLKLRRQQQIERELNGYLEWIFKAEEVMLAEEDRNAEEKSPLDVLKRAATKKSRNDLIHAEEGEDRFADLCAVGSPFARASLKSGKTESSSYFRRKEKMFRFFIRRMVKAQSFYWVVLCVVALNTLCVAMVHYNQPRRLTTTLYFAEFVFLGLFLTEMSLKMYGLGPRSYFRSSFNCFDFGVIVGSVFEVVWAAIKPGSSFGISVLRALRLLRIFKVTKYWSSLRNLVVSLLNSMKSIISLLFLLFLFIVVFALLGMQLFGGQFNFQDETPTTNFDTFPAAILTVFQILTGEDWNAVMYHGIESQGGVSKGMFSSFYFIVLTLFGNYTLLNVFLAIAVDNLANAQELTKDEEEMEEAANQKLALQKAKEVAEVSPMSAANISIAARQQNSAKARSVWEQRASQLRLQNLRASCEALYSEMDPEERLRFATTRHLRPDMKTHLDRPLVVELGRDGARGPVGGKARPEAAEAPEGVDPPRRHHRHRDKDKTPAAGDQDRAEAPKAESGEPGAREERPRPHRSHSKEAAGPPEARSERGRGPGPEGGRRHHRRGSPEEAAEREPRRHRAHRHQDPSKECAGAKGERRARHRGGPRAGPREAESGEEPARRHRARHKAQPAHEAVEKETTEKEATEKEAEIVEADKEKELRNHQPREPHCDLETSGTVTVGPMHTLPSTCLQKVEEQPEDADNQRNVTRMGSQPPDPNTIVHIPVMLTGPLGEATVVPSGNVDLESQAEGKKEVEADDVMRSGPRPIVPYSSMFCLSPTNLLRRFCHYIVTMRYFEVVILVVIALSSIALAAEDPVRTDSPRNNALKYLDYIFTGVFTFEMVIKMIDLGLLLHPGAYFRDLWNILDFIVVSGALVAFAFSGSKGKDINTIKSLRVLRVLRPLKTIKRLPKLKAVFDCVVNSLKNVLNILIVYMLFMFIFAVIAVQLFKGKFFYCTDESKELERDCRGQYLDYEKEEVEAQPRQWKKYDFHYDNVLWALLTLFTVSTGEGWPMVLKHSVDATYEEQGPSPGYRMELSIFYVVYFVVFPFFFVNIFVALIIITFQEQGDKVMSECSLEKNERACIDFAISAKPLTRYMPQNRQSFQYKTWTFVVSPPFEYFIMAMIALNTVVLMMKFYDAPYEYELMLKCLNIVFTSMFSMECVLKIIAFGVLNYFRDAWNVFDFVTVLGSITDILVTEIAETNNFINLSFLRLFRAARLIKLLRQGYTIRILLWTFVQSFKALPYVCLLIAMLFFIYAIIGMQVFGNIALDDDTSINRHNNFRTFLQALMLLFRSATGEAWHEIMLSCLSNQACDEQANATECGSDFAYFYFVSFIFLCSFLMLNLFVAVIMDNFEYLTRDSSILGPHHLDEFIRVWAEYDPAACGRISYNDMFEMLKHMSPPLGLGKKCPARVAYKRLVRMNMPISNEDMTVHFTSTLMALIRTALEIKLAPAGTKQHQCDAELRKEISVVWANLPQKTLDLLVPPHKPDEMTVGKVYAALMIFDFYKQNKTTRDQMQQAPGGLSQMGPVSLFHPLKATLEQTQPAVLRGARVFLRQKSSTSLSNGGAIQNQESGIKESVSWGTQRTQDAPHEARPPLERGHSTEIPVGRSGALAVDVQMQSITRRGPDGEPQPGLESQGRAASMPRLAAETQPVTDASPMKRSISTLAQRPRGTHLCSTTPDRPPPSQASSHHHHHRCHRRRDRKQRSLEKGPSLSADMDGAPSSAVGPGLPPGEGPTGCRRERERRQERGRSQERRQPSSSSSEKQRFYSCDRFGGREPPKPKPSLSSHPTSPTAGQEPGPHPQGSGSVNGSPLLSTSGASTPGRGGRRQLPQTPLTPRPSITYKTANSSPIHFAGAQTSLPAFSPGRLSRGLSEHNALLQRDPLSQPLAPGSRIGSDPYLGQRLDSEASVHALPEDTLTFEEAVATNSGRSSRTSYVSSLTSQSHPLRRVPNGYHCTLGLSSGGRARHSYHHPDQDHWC
Chain of N-type calcium channel subunits (α1B, α2δ, and β3a) (P54289 25-1103 partner): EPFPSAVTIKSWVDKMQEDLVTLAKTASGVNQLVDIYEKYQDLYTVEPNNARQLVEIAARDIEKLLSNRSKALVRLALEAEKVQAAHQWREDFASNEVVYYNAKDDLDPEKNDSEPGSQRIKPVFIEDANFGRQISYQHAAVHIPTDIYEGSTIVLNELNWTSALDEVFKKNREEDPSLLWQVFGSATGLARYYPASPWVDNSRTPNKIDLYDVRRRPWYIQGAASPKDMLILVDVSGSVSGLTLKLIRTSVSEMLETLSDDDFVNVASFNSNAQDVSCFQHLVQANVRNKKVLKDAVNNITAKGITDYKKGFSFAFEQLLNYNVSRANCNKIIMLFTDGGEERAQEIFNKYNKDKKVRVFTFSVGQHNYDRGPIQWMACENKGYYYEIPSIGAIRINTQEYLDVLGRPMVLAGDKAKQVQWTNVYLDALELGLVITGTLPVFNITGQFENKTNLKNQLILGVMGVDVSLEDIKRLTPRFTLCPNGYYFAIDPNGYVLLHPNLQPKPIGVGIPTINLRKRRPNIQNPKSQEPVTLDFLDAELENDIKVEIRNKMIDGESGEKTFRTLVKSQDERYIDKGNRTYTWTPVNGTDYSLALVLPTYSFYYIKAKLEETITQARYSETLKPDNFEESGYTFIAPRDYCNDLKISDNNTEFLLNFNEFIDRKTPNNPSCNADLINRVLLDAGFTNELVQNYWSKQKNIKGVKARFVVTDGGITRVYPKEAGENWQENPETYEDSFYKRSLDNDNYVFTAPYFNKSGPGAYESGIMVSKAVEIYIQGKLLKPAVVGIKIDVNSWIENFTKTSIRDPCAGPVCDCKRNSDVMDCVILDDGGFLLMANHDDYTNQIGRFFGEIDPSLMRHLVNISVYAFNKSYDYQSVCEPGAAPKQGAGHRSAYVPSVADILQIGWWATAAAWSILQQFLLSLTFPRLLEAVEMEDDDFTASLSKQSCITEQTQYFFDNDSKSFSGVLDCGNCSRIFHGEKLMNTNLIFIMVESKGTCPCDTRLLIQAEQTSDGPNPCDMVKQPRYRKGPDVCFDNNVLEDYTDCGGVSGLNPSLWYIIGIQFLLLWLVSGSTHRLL
Chain of N-type calcium channel subunits (α1B, α2δ, and β3a) (P54284 whole entry partner): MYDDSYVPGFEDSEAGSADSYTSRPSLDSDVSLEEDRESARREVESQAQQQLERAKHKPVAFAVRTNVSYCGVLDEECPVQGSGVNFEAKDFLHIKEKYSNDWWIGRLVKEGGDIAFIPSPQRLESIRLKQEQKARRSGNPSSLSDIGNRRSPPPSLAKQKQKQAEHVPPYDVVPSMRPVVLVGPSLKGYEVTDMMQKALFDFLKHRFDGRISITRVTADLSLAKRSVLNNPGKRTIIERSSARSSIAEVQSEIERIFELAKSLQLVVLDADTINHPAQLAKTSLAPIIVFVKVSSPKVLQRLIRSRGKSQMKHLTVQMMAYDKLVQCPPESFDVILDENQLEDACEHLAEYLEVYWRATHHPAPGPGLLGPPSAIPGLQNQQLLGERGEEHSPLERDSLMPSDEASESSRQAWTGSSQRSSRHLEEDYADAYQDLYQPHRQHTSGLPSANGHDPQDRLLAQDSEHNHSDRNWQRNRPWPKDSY
Outline: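 Percent block taken as current amplitude ratio with versus without compound, applied in rising doses; IC50 fitted where one cell received multiple doses. Protocol: 50 ms pulses to +20 mV at 0.067 Hz from […] or −90 mV holding; P/n leak subtraction, no junction-potential correction; manual and PatchXpress recordings.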

pIC50 [1] | pIC50 [2] | IC50 [3] [nM] | Compound
6.02 | 6.40 | 940 | CS(=O)(=O)c1cc(Cl)ccc1C(=O)NC[C@H]1C[C@H](S(=O)(=O)c2cccc(C(F)(F)F)c2)C1 [Compound 368, 4-chloro-2-(methylsulfonyl)-N-(((1R,3R)3-(3-(trifluoromethyl)phenylsulfonyl)cyclobutyl)methyl)benzamide]
< 5.00 | < 5.00 | 190 | O=C(N[C@H]1CC[C@@](F)(S(=O)(=O)c2cccc(C(F)(F)F)c2)CC1)c1ccc(Cl)c(Cl)c1 [Compound 269, 3,4-dichloro-N-((1S,4S)-4-fluoro-4-(3-(trifluoromethyl)phenylsulfonyl)cyclohexyl)benzamide]
< 5.00 | 5.68 | 450 | O=C(N[C@H]1CC[C@@](F)(S(=O)(=O)c2cccc(C(F)(F)F)c2)CC1)C1Cc2ccccc2N1 (stereo partly drawn) [Compound 279, N-((1S,4S)-4-fluoro-4-(3-(trifluoromethyl)phenylsulfonyl)cyclohexyl) indoline-2-carboxamide]
< 5.00 | < 5.00 | 270 | Cc1cc(C(=O)N[C@H]2CC[C@@H](S(=O)(=O)c3cccc(C(F)(F)F)c3)CC2)c(C(F)(F)F)o1 [Compound 198, 5-methyl-2-(trifluoromethyl)-N-((1S,4S)-4-(3-(trifluoromethyl)phenylsulfonyl)cyclohexyl)furan-3-carboxamide]
5.97 | 6.18 | 1160 | O=C(NC[C@H]1C[C@H](S(=O)(=O)c2cccc(C(F)(F)F)c2)C1)c1cnc(C(F)(F)F)nc1 [Compound 371, 2-(trifluoromethyl)-N-(((1R,3R)-3-(3-(trifluoromethyl)phenylsulfonyl)cyclobutyl)methyl)pyrimidine-5-carboxamide]
6.04 | 6.62 | 1840 | O=C(CN[C@H]1C[C@@H](S(=O)(=O)c2cccc(C(F)(F)F)c2)C1)NC1CCC(F)(F)CC1 [Compound 431, N-(4,4-difluorocyclohexyl)-2-((1S,3S)-3-(3-(trifluoromethyl)phenylsulfonyl)cyclobutylamino) acetamide]
5.73 | 5.99 | 390 | O=C(N[C@H]1CC[C@@H](CS(=O)(=O)c2cccc(C(F)(F)F)c2)CC1)c1ccc(Cl)c(OC(F)(F)F)c1 [Compound 139, 4-chloro-3-(trifluoromethoxy)-N-((1S,4S)-4-((3-(trifluoromethyl)phenylsulfonyl)methyl)cyclohexyl)benzamide]
6.13 | 6.59 | 370 | CS(=O)(=O)c1cc(C(F)(F)F)ccc1C(=O)N[C@H]1CC[C@@](F)(S(=O)(=O)c2cccc(OC(F)(F)F)c2)CC1 [Compound 254]
< 5.00 | < 5.00 | 690 | Cn1nc(C(F)(F)F)cc1C(=O)NC1CCC(S(=O)(=O)c2cccc(C(F)(F)F)c2)CC1 (stereo not drawn) [Compound 13, 1-methyl-3-(trifluoromethyl)-N-(4-(3-(trifluoromethyl)phenylsulfonyl)cyclohexyl)-1H-pyrazole-5-carboxamide]
5.81 | 5.61 | 230 | O=C(N[C@H]1CC[C@@](F)(S(=O)(=O)c2cccc(C(F)(F)F)c2)CC1)[C@H]1C[C@@H]1c1ccccc1 [Compound 304, (1S,2S)-N-((1S,4R)-4-fluoro-4-(3-(trifluoromethyl)phenylsulfonyl)cyclohexyl)-2-phenylcyclopropane carboxamide]
5.37 | 6.00 | 800 | O=C(N[C@H]1CC[C@](F)(S(=O)(=O)c2cccc(OC(F)(F)F)c2)CC1)c1ccc(F)c(Cl)c1 [Compound 250, 3-chloro-4-fluoro-N-((1R,4R)-4-fluoro-4-(3-(trifluoromethoxy)phenylsulfonyl)cyclohexyl)benzamide]
< 5.00 | 5.52 | 70 | CN(C(=O)CN[C@H]1CC[C@@](F)(S(=O)(=O)c2cccc(C(F)(F)F)c2)CC1)C(C)(C)C [Compound 88, N-tert-butyl-2-((1S,4S)-4-fluoro-4-(3-(trifluoromethyl)phenylsulfonyl)cyclohexylamino)-N-methylacetamide]
< 5.00 | < 5.00 | 300 | O=C(N[C@H]1CC[C@@](F)(S(=O)(=O)c2cccc(C(F)(F)F)c2)CC1)C1CCC(F)(F)CC1 [Compound 305, 4,4-difluoro-N-((1S,4S)-4-fluoro-4-(3-(trifluoromethyl)phenylsulfonyl)cyclohexyl) cyclohexanecarboxamide]
6.19 | 6.68 | 730 | O=S(=O)(N[C@H]1CC[C@@](F)(S(=O)(=O)c2cccc(C(F)(F)F)c2)CC1)c1ccccc1C(F)(F)F [Compound 299, N-((1S,4S)-4-fluoro-4-(3-(trifluoromethyl)phenylsulfonyl)cyclohexyl)-2-(trifluoromethyl) benzenesulfonamide]
5.58 | 6.44 | 260 | O=C(N[C@H]1CC[C@@](F)(S(=O)(=O)c2cccc(C(F)(F)F)c2)CC1)c1ccc(OCC(F)(F)F)nc1 [Compound 249, N-((1S,4S)-4-fluoro-4-(3-(trifluoromethyl)phenylsulfonyl)cyclohexyl)-6-(2,2,2-trifluoroethoxy)nicotinamide]
7.52 | 6.36 | 660 | 4-chloro-3-fluoro-N-((1R,4R)-4-(3- (trifluoromethyl)phenylsulfonyl) cyclohexyl)benzamide [Compound 123]
5.21 | 5.02 | 500 | CS(=O)(=O)c1cc(C(F)(F)F)cnc1C(=O)N[C@H]1CC[C@@](F)(S(=O)(=O)c2cccc(C(F)(F)F)c2)CC1 [Compound 259, N-((1S,4S)-4-fluoro-4-(3-(trifluoromethyl)phenylsulfonyl)cyclohexyl)-3-(methylsulfonyl)-5-(trifluoromethyl)picolinamide]
5.01 | 5.55 | 420 | 4-fluoro-3-(trifluoromethyl)-N- ((1S,4S)-4-((3- (trifluoromethyl)phenylsulfonyl) methyl)cyclohexyl)benzamide [Compound 138]
5.23 | 5.87 | 1190 | CN(C(=O)CN[C@H]1CC[C@@H](CS(=O)(=O)c2cccc(C(F)(F)F)c2)CC1)C(C)(C)C [Compound 145, N-tert-butyl-N-methyl-2-((1S,4S)-4-((3-(trifluoromethyl)phenylsulfonyl)methyl)cyclohexylamino)acetamide]
5.20 | 5.24 | 1160 | CC1(NC(=O)c2ccc(F)c(Cl)c2)CCC(S(=O)(=O)c2cccc(C(F)(F)F)c2)CC1 (stereo not drawn) [Compound 310, 3-chloro-4-fluoro-N-(1-methyl-4-(3-(trifluoromethyl)phenylsulfonyl)cyclohexyl) benzamide]
< 5.00 | < 5.00 | 260 | COc1cc(Cl)ccc1C(=O)N[C@H]1CC[C@@](F)(S(=O)(=O)c2cccc(C(F)(F)F)c2)CC1 [Compound 265, 4-chloro-N-((1S,4S)-4-fluoro-4-(3-(trifluoromethyl)phenylsulfonyl)cyclohexyl)-2-methoxybenzamide]
6.17 | 6.19 | 290 | O=C(NC[C@H]1C[C@H](S(=O)(=O)c2cccc(C(F)(F)F)c2)C1)c1cc(F)cc(Cl)c1 [Compound 370, 3-chloro-5-fluoro-N-(((1R,3R)-3-(3-(trifluoromethyl)phenylsulfonyl)cyclobutyl)methyl)benzamide]
5.38 | 5.64 | 1450 | CC1(NC(=O)c2cc(C(F)(F)F)ccn2)CCC(S(=O)(=O)c2cccc(C(F)(F)F)c2)CC1 (stereo not drawn) [Compound 308, N-(1-methyl-4-(3-(trifluoromethyl)phenylsulfonyl)cyclohexyl)-4-(trifluoromethyl)picolinamide]
< 5.00 | < 5.00 | 650 | CN(C(=O)CN[C@H]1CC[C@H](CS(=O)(=O)c2cccc(C(F)(F)F)c2)CC1)C(C)(C)C [Compound 115, N-tert-butyl-N-methyl-2-((1R,4R)-4-((3-(trifluoromethyl)phenylsulfonyl)methyl)cyclohexylamino)acetamide]
6.19 | < 5.00 | – | CC(C)(CCNC(=O)c1cc(C(F)(F)F)nc(S(C)(=O)=O)c1)S(=O)(=O)c1cc(F)cc(C(F)(F)F)c1 [Compound 536, N-(3-(3-fluoro-5-(trifluoromethyl)phenylsulfonyl)-3-methylbutyl)-2-(methylsulfonyl)-6-(trifluoromethyl) isonicotinamide]
6.54 | 6.19 | – | CC(C)(CCNC(=O)c1ccc(Oc2ccc(Cl)cc2)cc1)S(=O)(=O)c1cccc(C(F)(F)F)c1 [Compound 506, 4-(4-chlorophenoxy)-N-(3-methyl-3-(3-(trifluoromethyl)phenylsulfonyl)butyl) benzamide]
6.31 | < 5.00 | – | CN(CCC(C)(C)S(=O)(=O)c1cccc(C(F)(F)F)c1)C(=O)c1cc(C(F)(F)F)n[nH]1 [Compound 513, N-methyl-N-(3-methyl-3-(3-(trifluoromethyl)phenylsulfonyl)butyl)-3-(trifluoromethyl)-1H-pyrazole-5-carboxamide]

Compound | pIC50 [1] | pIC50 [2] | IC50 [3] [nM]
4-chloro-2-(methylsulfonyl)-N- ((1R,4R)-4-(3- (trifluoromethyl)phenylsulfonyl) cyclohexyl)benzamide [Compound 121] | 6.14 | 6.03 | 3730
